From ChEMBL document CHEMBL3885881, “DrugMatrix”

Species on record: Rattus norvegicus
Assay: DrugMatrix - Regimen: Daily Repeat
Format: toxicity, organism-based, Sprague-Dawley
Set-up: regimen Daily Repeat, gender Male, age 6-8 weeks
Details: in vivo, po, route oral GAVAGE, […]; for ABSOLUTE BASOPHIL / ABSOLUTE EOSINOPHIL / ABSOLUTE LYMPHOCYTE / ABSOLUTE MONOCYTE / ABSOLUTE SEGMENTED NEUTROPHIL / BASOPHIL / EOSINOPHIL / ERYTHROCYTE COUNT / HEMATOCRIT / HEMOGLOBIN / LEUKOCYTE COUNT / LYMPHOCYTE / MEAN CORPUSCULAR HEMOGLOBIN / MEAN CORPUSCULAR HEMOGLOBIN CONCENTRATION / MEAN CORPUSCULAR VOLUME / MONOCYTE / NEUTROPHIL / NUCLEATED RED BLOOD CELLS / PLATELET COUNT: tissue Blood; for ALANINE AMINOTRANSFERASE / ALBUMIN / ALKALINE PHOSPHATASE / ASPARTATE AMINOTRANSFERASE / BLOOD UREA NITROGEN / CARBON DIOXIDE / CHLORIDE / CHOLESTEROL / CREATINE PHOSPHOKINASE / CREATININE / GLUCOSE / LACTATE DEHYDROGENASE / LIPASE / PHOSPHORUS / POTASSIUM / SODIUM / TOTAL BILIRUBIN / TOTAL PROTEIN / URIC ACID: tissue Plasma
[1] = 50 mg/kg, 120 h, dose level Low, time 5 day
[2] = 175 mg/kg, 72 h, dose level High, time 3 day
[3] = 175 mg/kg, 120 h, dose level High, time 5 day

SMILES: Oc1ncnc2[nH]ncc12 [ALLOPURINOL]
- ABSOLUTE BASOPHIL [1]: 0 CELLS/uL
- ABSOLUTE EOSINOPHIL [1]: 49 CELLS/uL
- ABSOLUTE LYMPHOCYTE [1]: 17802 CELLS/uL
- ABSOLUTE MONOCYTE [1]: 49 CELLS/uL
- ABSOLUTE SEGMENTED NEUTROPHIL [1]: 1133.33 CELLS/uL
- BASOPHIL [1]: 0%
- EOSINOPHIL [1]: 0.33%
- ERYTHROCYTE COUNT [1]: 5.63 x10E6/uL
- HEMATOCRIT [1]: 35.03%
- HEMOGLOBIN [1]: 13.73 G/DL
- LEUKOCYTE COUNT [1]: 19.03 x10E3/uL
- LYMPHOCYTE [1]: 93%
- MEAN CORPUSCULAR HEMOGLOBIN [1]: 24.47 pg
- MEAN CORPUSCULAR HEMOGLOBIN CONCENTRATION [1]: 39.27 G/DL
- MEAN CORPUSCULAR VOLUME [1]: 62.33 fL
- MONOCYTE [1]: 0.33%
- NEUTROPHIL [1]: 6.33%
- NUCLEATED RED BLOOD CELLS [1]: 0 /100WBC
- PLATELET COUNT [1]: 1236.33 x10E3/uL
- ALANINE AMINOTRANSFERASE [1]: 56.33 u/L
- ALBUMIN [1]: 3.97 G/DL
- ALKALINE PHOSPHATASE [1]: 308 u/L
- ASPARTATE AMINOTRANSFERASE [1]: 104 u/L
- BLOOD UREA NITROGEN [1]: 20 mg/dL
- CARBON DIOXIDE [1]: 27 mmol/L
- CHLORIDE [1]: 100 MEQ/L
- CHOLESTEROL [1]: 65.33 mg/dL
- CREATINE PHOSPHOKINASE [1]: 626 u/L
- CREATININE [1]: 0.41 mg/dL
- GLUCOSE [1]: 169.33 mg/dL
- LACTATE DEHYDROGENASE [1]: 263.33 u/L
- LIPASE [1]: 10 u/L
- PHOSPHORUS [1]: 9.7 mg/dL
- POTASSIUM [1]: 5.66 MEQ/L
- SODIUM [1]: 141.17 MEQ/L
- TOTAL BILIRUBIN [1]: 0.2 mg/dL
- TOTAL PROTEIN [1]: 5.6 G/DL
- URIC ACID [1]: 0.83 mg/dL
- ABSOLUTE BASOPHIL [2]: 0 CELLS/uL
- ABSOLUTE EOSINOPHIL [2]: 0 CELLS/uL
- ABSOLUTE LYMPHOCYTE [2]: 8294 CELLS/uL
- ABSOLUTE MONOCYTE [2]: 350.5 CELLS/uL
- ABSOLUTE SEGMENTED NEUTROPHIL [2]: 4205.5 CELLS/uL
- BASOPHIL [2]: 0%
- EOSINOPHIL [2]: 0%
- ERYTHROCYTE COUNT [2]: 5.27 x10E6/uL
- HEMATOCRIT [2]: 32.2%
- HEMOGLOBIN [2]: 12.95 G/DL
- LEUKOCYTE COUNT [2]: 12.85 x10E3/uL
- LYMPHOCYTE [2]: 64%
- MEAN CORPUSCULAR HEMOGLOBIN [2]: 24.55 pg
- MEAN CORPUSCULAR HEMOGLOBIN CONCENTRATION [2]: 40.3 G/DL
- MEAN CORPUSCULAR VOLUME [2]: 61.1 fL
- MONOCYTE [2]: 3%
- NEUTROPHIL [2]: 33%
- NUCLEATED RED BLOOD CELLS [2]: 0 /100WBC
- PLATELET COUNT [2]: 1127 x10E3/uL
- ALANINE AMINOTRANSFERASE [2]: 101 u/L
- ALBUMIN [2]: 3.9 G/DL
- ALKALINE PHOSPHATASE [2]: 397.5 u/L
- ASPARTATE AMINOTRANSFERASE [2]: 153.5 u/L
- BLOOD UREA NITROGEN [2]: 113.5 mg/dL
- CARBON DIOXIDE [2]: 24.5 mmol/L
- CHLORIDE [2]: 93 MEQ/L
- CHOLESTEROL [2]: 99 mg/dL
- CREATINE PHOSPHOKINASE [2]: 283.5 u/L
- CREATININE [2]: 3.31 mg/dL
- GLUCOSE [2]: 154.5 mg/dL
- LACTATE DEHYDROGENASE [2]: 217.5 u/L
- LIPASE [2]: 12 u/L
- PHOSPHORUS [2]: 16.65 mg/dL
- POTASSIUM [2]: 6.46 MEQ/L
- SODIUM [2]: 141.2 MEQ/L
- TOTAL BILIRUBIN [2]: 0.35 mg/dL
- TOTAL PROTEIN [2]: 6.55 G/DL
- URIC ACID [2]: 0.2 mg/dL
- ABSOLUTE BASOPHIL [3]: 0 CELLS/uL
- ABSOLUTE EOSINOPHIL [3]: 81.33 CELLS/uL
- ABSOLUTE LYMPHOCYTE [3]: 15570.33 CELLS/uL
- ABSOLUTE MONOCYTE [3]: 599.67 CELLS/uL
- ABSOLUTE SEGMENTED NEUTROPHIL [3]: 6148.67 CELLS/uL
- BASOPHIL [3]: 0%
- EOSINOPHIL [3]: 0.33%
- ERYTHROCYTE COUNT [3]: 5.7 x10E6/uL
- HEMATOCRIT [3]: 35.5%
- HEMOGLOBIN [3]: 13.77 G/DL
- LEUKOCYTE COUNT [3]: 22.4 x10E3/uL
- LYMPHOCYTE [3]: 69.33%
- MEAN CORPUSCULAR HEMOGLOBIN [3]: 24.17 pg
- MEAN CORPUSCULAR HEMOGLOBIN CONCENTRATION [3]: 38.8 G/DL
- MEAN CORPUSCULAR VOLUME [3]: 62.27 fL
- MONOCYTE [3]: 2.67%
- NEUTROPHIL [3]: 27.67%
- NUCLEATED RED BLOOD CELLS [3]: 0 /100WBC
- PLATELET COUNT [3]: 1373 x10E3/uL
- ALANINE AMINOTRANSFERASE [3]: 78.67 u/L
- ALBUMIN [3]: 3.73 G/DL
- ALKALINE PHOSPHATASE [3]: 409 u/L
- ASPARTATE AMINOTRANSFERASE [3]: 102 u/L
- BLOOD UREA NITROGEN [3]: 46.33 mg/dL
- CARBON DIOXIDE [3]: 26.33 mmol/L
- CHLORIDE [3]: 105.33 MEQ/L
- CHOLESTEROL [3]: 83.67 mg/dL
- CREATINE PHOSPHOKINASE [3]: 242.33 u/L
- CREATININE [3]: 1.36 mg/dL
- GLUCOSE [3]: 145 mg/dL
- LACTATE DEHYDROGENASE [3]: 182.33 u/L
- LIPASE [3]: 10.33 u/L
- PHOSPHORUS [3]: 7.7 mg/dL
- POTASSIUM [3]: 6.87 MEQ/L
- SODIUM [3]: 149 MEQ/L
- TOTAL BILIRUBIN [3]: 0.2 mg/dL
- TOTAL PROTEIN [3]: 5.87 G/DL
- URIC ACID [3]: 0.2 mg/dL
